# Like-named read-outs stand apart in the source and are kept apart here.
# Legend:
# [1] = LNP size and PDI by dynamic light scattering; type: physicochemical
# In short: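 Hydrodynamic diameter measured by DLS with a 633 nm He/Ne laser in backscatter mode (173°), averaging 10 runs of two cycles per sample. Size reported as Z-average (harmonic intensity-averaged diameter), with polydispersity given as PDI.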
# [2] = TNS assay, surface pKa of lipid nanoparticles; type: physicochemical
# In short: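 Empty LNPs containing the ionizable lipid (LM02 composition, 0.781 mM total lipid before mixing) were combined with TNS in 10 mM HEPES, 10 mM MES, 10 mM NH4OAc, 130 mM NaCl buffers at pH 3–9 in 0.5 steps. Fluorescence was read at room temperature (ex 321/em 445 nm); pKa was taken as the pH of half-maximal intensity from a sigmoidal fit.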
# [3] = Nucleic acid encapsulation efficiency by RiboGreen assay; type: physicochemical
# [4] = system: isolated primary human T cells; assay: GFP mRNA-LNP transfection of primary human T cells, flow cytometry; type: cell-based; conditions: for protein expression (GFP MFI) compared with MC3: FIG. 5, CT10, N/P 8, 500 ng mRNA per 125,000 cells, 3 days after activation, 48 h; for amount of protein produced (MFI) in human T cells compared with MC3: summary
# Protocol: Reagents were from Stemcell Technologies unless otherwise stated. Tcells were isolated from a single donor. At 48 h following lipid particle mRNA exposure, the treated T cells were harvested by transferring the cell suspensions to pre-labeled 1.5 mL tubes and centrifuged 300×g at 4 degrees C. for 10 minutes. Supernatant was removed and the pellet resuspended in PBS. An amount of 0.5 ul of BD Horizon™ Fixable Viability Stain 575V™ (BD Biosciences), was added, and the mixture incubated in the dark for 10 minutes at RT. This stain binds to amines.
# The cells were centrifuged again as before, then washed twice with 1 mL of stain buffer (BSA, BD Pharminigen), and the washed pellet was diluted in 100 μl BSA. The following antibodies were added to each tube of treated cells in 2 μl volumes: CD25, CD8, CD4, (PerCP-Cy™ 5.5 Mouse Anti Human CD25, BV786 Mouse Anti-Human CD8 Clone RPA-T8, APC-Cy™7 Mouse Anti-Human CD4 Clone SK3 (all from BD Pharmingen) with the exception of the controls: in the eGFP only sample and viability control, no antibody was added. In the single stain compensation tubes, only one antibody per tube was added.
# The tubes were incubated at 4 degrees C. for 30 min, whereupon […] of stain buffer was added, and the cells were centrifuged again. Cells were washed once with 1 mL of stain buffer and spun down again as in step one. Cell pellets were resuspended in 1 mL of stain buffer and added to pre-labeled flow tubes with cell strainer caps (Corning Falcon). […]
# GFP MFI was measured by flow cytometry 48 hours after LNP addition. T cells were isolated from whole blood using a negative isolation procedure (EasySep™ Human T Cell Isolation Kit, Stemcell Technologies). T cells were dosed with mRNA-LNPs 3 days after activation with 500 ng of encapsulated mRNA per 125,000 cells. The LNP were CT10 compositions with an N/P of 8. Transfection efficiency (upper graph) and MFI (lower graph) were measured by flow cytometry 48 h after LNP addition.
# [5] = Table 6, GFP-encoded LNPs, CT10, N/P 8
# [6] = Table 7, EPO mRNA LNPs, LM02, N/P 6
# [7] = Table 1, formulated lipid nanoparticles, TNS assay, read-out: Exp. pKa
SMILES,"Diameter (Z. ave, nm) [1, 5]","Polydispersity Index (PDI) [1, 5]","Diameter (Z. ave, nm) [1, 6]","Polydispersity Index (PDI) [1, 6]","pKa [2, 7]","pKa ([2]; Table 8, read-out: Exp.pKa)","Encapsulation Efficiency (%) [3, 5]","Encapsulation Efficiency (%) [3, 6]",amount of protein produced (MFIs) compared with MC3 [4],protein expression (GFP MFI) compared with MC3 [4],amount of protein produced (MFI) in human T cells compared with MC3 [4],"pKa ([2]; Table 5, read-out: pKa Exp.)","transfection efficiency compared with MC3 ([4]; FIG. 1, eGFP mRNA LNP, CT10, N/P 10, 48 hours after treatment)","transfection efficiency compared with MC3 in various donors ([4]; FIG. 2, six donors, treated 7 days post activation, 48 hours)","viability of T cells compared to untreated cells ([4]; six-donor experiment, not shown)"
CCCCC/C=C\C/C=C\CCCCCCCC(=O)O[C@@H]1[C@@H](OC(=O)CCCCCCC/C=C\C/C=C\CCCCC)CO[C@@H]1COC(=O)C1(C)CCN(C)C1 (mixture of isomers) [PNI 329],74.1 nm,0.11,70.9 nm,0.04,5.88,5.88,93.2%,94.4%,better than MC3,higher levels of protein expression than MC3,better than MC3,–,–,–,–
CCCCC/C=C\C/C=C\CCCCCCCC(=O)O[C@@H]1[C@@H](OC(=O)CCCCCCC/C=C\C/C=C\CCCCC)CO[C@@H]1COC(=O)CCCN1CCCC1 (racemic) [PNI 539],–,–,86.9 nm,0.13,6.6,6.6,–,88.2%,–,–,–,–,–,–,–
CCCCC/C=C\C/C=C\CCCCCCCC(=O)O[C@@H]1[C@@H](OC(=O)CCCCCCC/C=C\C/C=C\CCCCC)CO[C@@H]1COC(=O)CCCN(C)C (racemic) [PNI 121],100.7 nm,0.16,93.5 nm,0.10,6.83,6.8,87.3%,98.8%,–,–,better than MC3,6.83,greater than MC3,greater than those containing clinically validated MC3,unaffected
CCCCC/C=C\C/C=C\CCCCCCCC(=O)O[C@@H]1[C@@H](OC(=O)CCCCCCC/C=C\C/C=C\CCCCC)CO[C@@H]1COC(=O)C1CCN(C)C1 (mixture of isomers) [PNI 328],92.6 nm,0.16,66.9 nm,0.02,6.09,6.09,92.5%,96.2%,–,higher levels of protein expression than MC3,better than MC3,–,–,–,–

# From patent publication US12636368B2, “Ionizable lipids for nucleic acid delivery” (Global Life Sciences Solutions Canada ULC, priority 2019, dated 2026)
